The values that follow come from ChEMBL document CHEMBL4477252, “Optimization of microtubule affinity regulating kinase (MARK) inhibitors with improved physical properties” (Bioorg Med Chem Lett, 2016).

Experiment [1] deals with Angiopoietin-1 receptor (Homo sapiens, UniProt Q02763). Put plainly: Inhibition of recombinant human GST-tagged cytoplasmic TEK expressed in baculovirus expression system by Z'-LYTE assay.
For experiment [2], the target named is T1, Serine/threonine-protein kinase TBK1 (Homo sapiens, UniProt Q9UHD2).
T1 sequence (Q9UHD2 whole entry): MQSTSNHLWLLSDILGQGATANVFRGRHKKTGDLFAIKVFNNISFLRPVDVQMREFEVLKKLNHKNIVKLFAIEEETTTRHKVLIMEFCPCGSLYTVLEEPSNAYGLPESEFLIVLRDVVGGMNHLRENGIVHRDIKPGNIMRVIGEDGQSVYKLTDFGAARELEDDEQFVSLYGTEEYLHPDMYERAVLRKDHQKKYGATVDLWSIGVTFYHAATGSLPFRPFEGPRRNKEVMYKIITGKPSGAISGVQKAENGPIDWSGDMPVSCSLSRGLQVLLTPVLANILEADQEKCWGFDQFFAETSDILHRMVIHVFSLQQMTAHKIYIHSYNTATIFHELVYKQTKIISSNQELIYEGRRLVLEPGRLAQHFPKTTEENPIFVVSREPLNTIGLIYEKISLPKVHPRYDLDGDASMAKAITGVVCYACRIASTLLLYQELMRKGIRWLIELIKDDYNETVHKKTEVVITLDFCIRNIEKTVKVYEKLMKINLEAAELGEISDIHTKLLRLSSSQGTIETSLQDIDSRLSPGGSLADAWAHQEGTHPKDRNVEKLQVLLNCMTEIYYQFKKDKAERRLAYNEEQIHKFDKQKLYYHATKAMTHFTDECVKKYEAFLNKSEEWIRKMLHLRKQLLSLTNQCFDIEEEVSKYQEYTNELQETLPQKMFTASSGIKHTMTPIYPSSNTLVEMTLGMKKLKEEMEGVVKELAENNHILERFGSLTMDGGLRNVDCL
Put plainly: Inhibition of full-length recombinant human GST-tagged TBK1 expressed in insect cells by Z'-LYTE assay.

The target of experiment [3] is T2, 3-phosphoinositide-dependent protein kinase 1 (Homo sapiens, UniProt O15530).
T2 sequence (O15530 whole entry): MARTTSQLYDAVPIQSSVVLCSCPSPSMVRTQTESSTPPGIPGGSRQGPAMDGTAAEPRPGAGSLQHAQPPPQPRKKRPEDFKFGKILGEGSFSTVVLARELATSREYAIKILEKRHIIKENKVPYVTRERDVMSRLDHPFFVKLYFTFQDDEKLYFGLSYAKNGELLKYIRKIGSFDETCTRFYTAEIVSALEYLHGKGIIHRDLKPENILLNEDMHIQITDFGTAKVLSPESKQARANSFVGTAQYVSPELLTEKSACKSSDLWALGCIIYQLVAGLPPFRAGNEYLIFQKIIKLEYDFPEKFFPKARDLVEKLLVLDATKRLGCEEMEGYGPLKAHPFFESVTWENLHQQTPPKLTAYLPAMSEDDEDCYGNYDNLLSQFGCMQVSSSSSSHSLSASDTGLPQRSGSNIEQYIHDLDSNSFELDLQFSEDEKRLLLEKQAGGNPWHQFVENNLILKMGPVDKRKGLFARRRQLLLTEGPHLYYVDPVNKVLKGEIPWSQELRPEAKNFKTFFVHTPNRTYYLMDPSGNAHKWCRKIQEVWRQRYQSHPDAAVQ
Put plainly: Inhibition of full-length recombinant human His-tagged PDK1 expressed in baculovirus expression system by Z'-LYTE assay.

Experiment [4] concerns the target Non-receptor tyrosine-protein kinase TYK2 (Homo sapiens, UniProt P29597). Briefly: Inhibition of recombinant human N-terminal GST-tagged cytoplasmic TYK2 (833 to 1187 residues) catalytic domain expressed in baculovirus expression system by Z'-LYTE assay.
The target of experiment [5] is cAMP-dependent protein kinase catalytic subunit alpha (Homo sapiens, UniProt P17612). Put plainly: Inhibition of recombinant human His-tagged PRKACA catalytic domain expressed in Escherichia coli by Z'-LYTE assay.
Experiment [6] concerns the target Ribosomal protein S6 kinase alpha-3 (Homo sapiens, UniProt P51812). Put plainly: Inhibition of full-length recombinant human His-tagged RPS6KA3 expressed in baculovirus expression system by Z'-LYTE assay.
In experiment [7] the target is Aurora kinase B (Homo sapiens, UniProt Q96GD4). Put plainly: Inhibition of full-length recombinant human His-tagged AURKB expressed in baculovirus expression system by LanthaScreen assay.
Chain of Aurora kinase B (Q96GD4 whole entry): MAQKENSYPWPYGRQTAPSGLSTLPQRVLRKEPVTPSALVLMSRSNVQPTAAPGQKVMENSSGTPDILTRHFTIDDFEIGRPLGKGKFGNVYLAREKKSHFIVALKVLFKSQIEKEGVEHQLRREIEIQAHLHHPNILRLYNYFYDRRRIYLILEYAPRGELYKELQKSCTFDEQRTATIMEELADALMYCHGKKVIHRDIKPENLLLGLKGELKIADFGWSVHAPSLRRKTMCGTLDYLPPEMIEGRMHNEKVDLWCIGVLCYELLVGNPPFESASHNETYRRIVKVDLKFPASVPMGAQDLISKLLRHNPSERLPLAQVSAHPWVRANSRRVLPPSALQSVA
Experiment [8] concerns the target MAP kinase-activated protein kinase 2 (Homo sapiens, UniProt P49137). Put plainly: Inhibition of full-length recombinant human His-tagged MAPKAPK2 expressed in Escherichia coli by Z'-LYTE assay.
For experiment [9], the target named is Glycogen synthase kinase-3 beta (Homo sapiens, UniProt P49841). Put plainly: Inhibition of full-length recombinant human His-tagged GSK3B expressed in baculovirus expression system by Z'-LYTE assay.
Chain of Glycogen synthase kinase-3 beta (P49841 whole entry): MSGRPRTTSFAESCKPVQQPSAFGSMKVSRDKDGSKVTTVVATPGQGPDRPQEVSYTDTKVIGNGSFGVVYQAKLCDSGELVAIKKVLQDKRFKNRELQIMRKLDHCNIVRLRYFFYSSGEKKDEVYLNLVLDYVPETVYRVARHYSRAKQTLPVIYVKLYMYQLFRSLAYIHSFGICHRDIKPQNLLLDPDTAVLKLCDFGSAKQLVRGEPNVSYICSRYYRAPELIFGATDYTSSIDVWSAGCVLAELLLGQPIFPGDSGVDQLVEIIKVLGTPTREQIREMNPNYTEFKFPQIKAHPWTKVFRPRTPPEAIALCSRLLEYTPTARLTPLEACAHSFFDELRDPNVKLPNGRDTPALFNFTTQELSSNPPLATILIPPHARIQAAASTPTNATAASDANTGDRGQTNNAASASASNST
Experiment [10] deals with T3, Ephrin type-A receptor 8 (Homo sapiens, UniProt P29322).
T3 sequence (P29322 whole entry): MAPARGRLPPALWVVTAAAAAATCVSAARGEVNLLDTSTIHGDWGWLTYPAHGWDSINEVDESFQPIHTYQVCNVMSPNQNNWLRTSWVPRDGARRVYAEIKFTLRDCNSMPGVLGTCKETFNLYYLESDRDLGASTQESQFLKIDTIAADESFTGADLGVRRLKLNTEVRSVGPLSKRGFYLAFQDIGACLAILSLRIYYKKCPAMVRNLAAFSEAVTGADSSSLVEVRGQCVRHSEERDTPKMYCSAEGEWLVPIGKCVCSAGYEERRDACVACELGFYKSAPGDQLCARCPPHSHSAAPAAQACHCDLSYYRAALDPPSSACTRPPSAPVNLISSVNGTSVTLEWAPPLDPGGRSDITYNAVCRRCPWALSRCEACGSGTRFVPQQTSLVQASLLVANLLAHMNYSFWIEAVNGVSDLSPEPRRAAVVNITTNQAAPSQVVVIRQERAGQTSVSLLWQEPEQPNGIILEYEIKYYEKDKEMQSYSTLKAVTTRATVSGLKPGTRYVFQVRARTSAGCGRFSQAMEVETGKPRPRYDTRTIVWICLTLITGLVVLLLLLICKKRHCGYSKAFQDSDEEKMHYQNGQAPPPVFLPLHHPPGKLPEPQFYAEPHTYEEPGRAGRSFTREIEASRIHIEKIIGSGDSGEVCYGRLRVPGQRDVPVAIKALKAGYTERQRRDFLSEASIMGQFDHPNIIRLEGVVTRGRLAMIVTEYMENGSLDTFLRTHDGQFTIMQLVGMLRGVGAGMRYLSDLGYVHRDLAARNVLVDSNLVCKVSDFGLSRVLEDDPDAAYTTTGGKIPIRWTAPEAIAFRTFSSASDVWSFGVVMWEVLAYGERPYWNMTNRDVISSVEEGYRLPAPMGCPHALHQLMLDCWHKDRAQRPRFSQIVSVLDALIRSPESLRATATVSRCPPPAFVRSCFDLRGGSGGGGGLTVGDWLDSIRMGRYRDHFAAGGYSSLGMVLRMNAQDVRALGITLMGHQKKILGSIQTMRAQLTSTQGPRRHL
Briefly: Inhibition of recombinant human GST-tagged cytoplasmic EPHA8 expressed in baculovirus expression system by Z'-LYTE assay.

SMILES strings stand for the structures. pIC50: −log10 of the molar value. Where only a bound is given, the exact number is not on record here.

Chain of MAP kinase-activated protein kinase 2 (P49137 whole entry): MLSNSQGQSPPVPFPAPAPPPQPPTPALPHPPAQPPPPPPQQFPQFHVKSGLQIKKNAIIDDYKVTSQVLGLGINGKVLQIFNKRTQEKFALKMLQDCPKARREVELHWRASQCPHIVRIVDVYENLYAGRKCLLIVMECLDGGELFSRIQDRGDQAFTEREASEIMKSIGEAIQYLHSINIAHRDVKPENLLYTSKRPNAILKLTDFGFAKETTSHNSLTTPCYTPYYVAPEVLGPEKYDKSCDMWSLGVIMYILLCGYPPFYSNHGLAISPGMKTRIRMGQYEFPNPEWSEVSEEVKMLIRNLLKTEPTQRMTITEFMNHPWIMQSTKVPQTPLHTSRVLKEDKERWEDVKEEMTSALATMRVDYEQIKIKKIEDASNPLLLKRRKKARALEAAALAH
Chain of Ribosomal protein S6 kinase alpha-3 (P51812 whole entry): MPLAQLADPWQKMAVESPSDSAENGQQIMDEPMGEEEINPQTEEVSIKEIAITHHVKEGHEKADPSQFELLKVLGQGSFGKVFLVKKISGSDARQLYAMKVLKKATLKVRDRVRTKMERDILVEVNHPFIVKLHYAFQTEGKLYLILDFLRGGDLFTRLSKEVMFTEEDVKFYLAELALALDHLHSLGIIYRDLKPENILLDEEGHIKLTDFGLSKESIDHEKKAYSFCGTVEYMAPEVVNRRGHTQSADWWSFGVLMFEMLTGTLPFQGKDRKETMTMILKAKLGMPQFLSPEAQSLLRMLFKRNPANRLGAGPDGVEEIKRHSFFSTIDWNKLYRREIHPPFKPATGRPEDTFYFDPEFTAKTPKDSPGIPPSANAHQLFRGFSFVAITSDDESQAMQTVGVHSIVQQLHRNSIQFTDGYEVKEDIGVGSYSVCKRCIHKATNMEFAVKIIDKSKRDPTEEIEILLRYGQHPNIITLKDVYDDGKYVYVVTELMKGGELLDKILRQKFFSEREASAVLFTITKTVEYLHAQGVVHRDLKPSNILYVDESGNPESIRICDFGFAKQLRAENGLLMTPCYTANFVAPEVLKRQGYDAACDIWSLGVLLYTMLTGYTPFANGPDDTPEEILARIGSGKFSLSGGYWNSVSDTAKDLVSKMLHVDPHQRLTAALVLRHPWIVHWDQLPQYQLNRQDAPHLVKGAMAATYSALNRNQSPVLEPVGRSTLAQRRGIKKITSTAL
Chain of Non-receptor tyrosine-protein kinase TYK2 (P29597 whole entry, the tested form may be a part): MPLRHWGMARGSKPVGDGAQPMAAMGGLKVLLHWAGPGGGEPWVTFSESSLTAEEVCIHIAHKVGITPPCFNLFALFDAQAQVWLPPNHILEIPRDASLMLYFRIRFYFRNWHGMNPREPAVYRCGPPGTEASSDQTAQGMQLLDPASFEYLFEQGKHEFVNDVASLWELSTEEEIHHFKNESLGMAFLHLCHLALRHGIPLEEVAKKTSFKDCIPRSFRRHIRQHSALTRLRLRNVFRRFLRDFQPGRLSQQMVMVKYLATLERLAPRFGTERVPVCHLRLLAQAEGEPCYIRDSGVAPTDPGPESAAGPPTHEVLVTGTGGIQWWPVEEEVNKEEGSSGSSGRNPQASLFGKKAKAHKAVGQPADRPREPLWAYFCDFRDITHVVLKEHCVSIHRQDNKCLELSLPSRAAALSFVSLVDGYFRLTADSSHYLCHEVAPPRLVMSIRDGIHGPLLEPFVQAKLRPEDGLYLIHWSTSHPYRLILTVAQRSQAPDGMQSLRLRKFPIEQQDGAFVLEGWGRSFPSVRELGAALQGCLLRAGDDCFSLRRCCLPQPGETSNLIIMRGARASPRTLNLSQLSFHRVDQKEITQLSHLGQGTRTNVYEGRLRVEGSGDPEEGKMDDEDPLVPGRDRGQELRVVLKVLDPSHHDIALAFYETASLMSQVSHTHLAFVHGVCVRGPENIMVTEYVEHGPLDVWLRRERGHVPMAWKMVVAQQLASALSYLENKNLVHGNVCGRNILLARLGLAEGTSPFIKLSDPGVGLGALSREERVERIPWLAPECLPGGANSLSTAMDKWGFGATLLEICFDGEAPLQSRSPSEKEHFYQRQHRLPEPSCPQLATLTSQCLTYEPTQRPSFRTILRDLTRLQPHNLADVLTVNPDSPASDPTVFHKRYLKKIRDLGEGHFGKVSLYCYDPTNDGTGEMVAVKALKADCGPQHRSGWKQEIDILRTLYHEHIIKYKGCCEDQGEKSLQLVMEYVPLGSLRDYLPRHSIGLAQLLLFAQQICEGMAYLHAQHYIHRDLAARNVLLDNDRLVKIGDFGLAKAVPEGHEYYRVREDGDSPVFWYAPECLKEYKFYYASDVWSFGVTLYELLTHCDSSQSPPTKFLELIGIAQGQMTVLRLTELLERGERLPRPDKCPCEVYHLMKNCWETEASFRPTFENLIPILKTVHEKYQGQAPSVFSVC
Chain of Angiopoietin-1 receptor (Q02763 whole entry): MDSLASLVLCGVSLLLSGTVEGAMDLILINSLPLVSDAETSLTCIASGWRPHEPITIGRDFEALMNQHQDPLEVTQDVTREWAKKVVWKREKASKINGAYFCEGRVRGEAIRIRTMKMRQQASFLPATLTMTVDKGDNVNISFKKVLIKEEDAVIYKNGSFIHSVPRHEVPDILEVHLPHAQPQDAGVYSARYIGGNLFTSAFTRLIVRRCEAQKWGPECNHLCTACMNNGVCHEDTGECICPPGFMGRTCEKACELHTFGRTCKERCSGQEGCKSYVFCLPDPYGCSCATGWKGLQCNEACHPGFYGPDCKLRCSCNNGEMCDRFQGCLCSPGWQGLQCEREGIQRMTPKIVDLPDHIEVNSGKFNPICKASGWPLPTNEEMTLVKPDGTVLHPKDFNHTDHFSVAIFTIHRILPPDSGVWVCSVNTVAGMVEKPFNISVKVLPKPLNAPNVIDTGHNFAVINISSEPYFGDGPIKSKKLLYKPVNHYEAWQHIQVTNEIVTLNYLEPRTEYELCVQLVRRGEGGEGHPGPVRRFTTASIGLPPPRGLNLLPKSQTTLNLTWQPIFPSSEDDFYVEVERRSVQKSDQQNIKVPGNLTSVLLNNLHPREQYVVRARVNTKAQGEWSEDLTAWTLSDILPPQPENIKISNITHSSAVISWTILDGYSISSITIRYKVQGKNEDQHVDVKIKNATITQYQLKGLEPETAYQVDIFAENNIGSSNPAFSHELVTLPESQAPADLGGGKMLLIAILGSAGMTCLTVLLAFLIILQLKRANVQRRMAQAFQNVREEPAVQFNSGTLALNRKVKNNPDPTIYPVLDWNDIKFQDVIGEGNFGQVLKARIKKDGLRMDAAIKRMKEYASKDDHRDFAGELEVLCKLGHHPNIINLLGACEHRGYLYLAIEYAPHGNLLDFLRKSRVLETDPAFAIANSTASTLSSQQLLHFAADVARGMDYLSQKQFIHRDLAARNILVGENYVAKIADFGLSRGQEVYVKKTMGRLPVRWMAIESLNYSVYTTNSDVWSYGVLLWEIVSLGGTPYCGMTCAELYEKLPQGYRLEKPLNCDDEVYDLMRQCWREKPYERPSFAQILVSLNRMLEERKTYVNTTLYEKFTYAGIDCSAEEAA

On to `Cn1cc(-c2cnc3c(-c4csc(C(=O)NCC(F)(F)F)c4)cnn3c2)cn1`, for which the pIC50 in experiment [1] was 5.33; in [2], above 8.00; in experiment [3], 7.28; in experiment [4] it was 7.04; in experiment [5] it was below 4.00; in [6], 6.42. Further, the pIC50 is above 8.00 in experiment [7], below 4.00 in experiment [8], 7.08 in [9] and 7.54 in [10].

Consider `Cc1sc(C(=O)N[C@@H]2[C@H](N)CCCC2(F)F)cc1-c1cnn2cc(Cl)cnc12`, for which the pIC50 in [1] was below 4.00; in [2] it was above 8.00; in experiment [3], 6.48; in experiment [4], 5.00; in [5] it was 5.52; in experiment [6] it was 7.33. Moreover, the pIC50 in [7] was 5.34; in experiment [8], 5.11; in experiment [9], 6.82; in [10], 4.80.

For `O=C(NCC(F)(F)F)c1cc(-c2cnn3cc(-c4ccc(OCCN5CCCCC5)cc4)cnc23)cs1`, the pIC50 in experiment [1] is 5.33; in [2] it was above 8.00; in experiment [3], 6.89; in [4], 7.12; in experiment [5], 4.82; in experiment [6], 6.59. The negative-log IC50 (pIC50) was 7.48 in [7], 4.26 in [8], 6.66 in experiment [9] and 7.68 in experiment [10].

For the compound `Cn1cc(-c2cnc3c(-c4csc(C(=O)N[C@@H]5CCCC[C@@H]5N)c4)cnn3c2)cn1` (racemic), the pIC50 is 6.18 in experiment [1]; above 9.00 in experiment [2]; 7.70 in experiment [3]; 7.28 in [4]; 7.57 in experiment [5]; above 9.00 in experiment [6]. The pIC50 is 7.55 in experiment [7], 6.41 in [8], 7.64 in experiment [9] and 8.54 in experiment [10].

One may read the pIC50 as the negative decadic logarithm of the IC50, by convention in mol/L.
